BindingDB's records for doi:10.1124/jpet.102.034249 (Sanofi-Synthelabo Recherche, 2002)

Tests used:
[1] = biological target: 5-hydroxytryptamine receptor 5A (Homo sapiens, UniProt P47898)
[2] = biological target: T1, 5-hydroxytryptamine receptor 1A (Homo sapiens, UniProt P08908)
T1 sequence (P08908 whole entry): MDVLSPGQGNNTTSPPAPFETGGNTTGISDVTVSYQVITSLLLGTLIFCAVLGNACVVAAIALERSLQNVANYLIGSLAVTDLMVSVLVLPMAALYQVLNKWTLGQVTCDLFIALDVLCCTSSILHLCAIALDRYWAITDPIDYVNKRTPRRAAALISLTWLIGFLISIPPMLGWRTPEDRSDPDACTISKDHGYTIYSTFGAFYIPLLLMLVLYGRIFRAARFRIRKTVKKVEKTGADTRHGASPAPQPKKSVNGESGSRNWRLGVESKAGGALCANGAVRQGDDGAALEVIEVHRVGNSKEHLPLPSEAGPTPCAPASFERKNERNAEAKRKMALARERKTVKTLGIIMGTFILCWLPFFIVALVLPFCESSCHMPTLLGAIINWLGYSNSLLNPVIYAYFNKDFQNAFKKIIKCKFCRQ

[3] = biological target: 5-hydroxytryptamine receptor 1D (Homo sapiens, UniProt P28221)
5-hydroxytryptamine receptor 1D, sequence (P28221 whole entry): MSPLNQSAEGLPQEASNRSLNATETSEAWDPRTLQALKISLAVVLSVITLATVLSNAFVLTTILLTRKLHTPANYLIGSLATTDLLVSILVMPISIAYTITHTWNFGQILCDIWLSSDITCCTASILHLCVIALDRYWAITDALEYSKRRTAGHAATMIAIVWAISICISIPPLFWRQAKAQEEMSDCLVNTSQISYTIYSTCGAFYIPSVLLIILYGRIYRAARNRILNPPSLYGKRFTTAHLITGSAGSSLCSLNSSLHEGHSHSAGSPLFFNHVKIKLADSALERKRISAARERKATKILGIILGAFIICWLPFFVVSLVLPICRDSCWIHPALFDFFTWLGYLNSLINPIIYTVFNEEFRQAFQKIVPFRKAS

[4] = biological target: 5-hydroxytryptamine receptor 2A (Homo sapiens, UniProt P28223)
5-hydroxytryptamine receptor 2A, sequence (P28223 whole entry): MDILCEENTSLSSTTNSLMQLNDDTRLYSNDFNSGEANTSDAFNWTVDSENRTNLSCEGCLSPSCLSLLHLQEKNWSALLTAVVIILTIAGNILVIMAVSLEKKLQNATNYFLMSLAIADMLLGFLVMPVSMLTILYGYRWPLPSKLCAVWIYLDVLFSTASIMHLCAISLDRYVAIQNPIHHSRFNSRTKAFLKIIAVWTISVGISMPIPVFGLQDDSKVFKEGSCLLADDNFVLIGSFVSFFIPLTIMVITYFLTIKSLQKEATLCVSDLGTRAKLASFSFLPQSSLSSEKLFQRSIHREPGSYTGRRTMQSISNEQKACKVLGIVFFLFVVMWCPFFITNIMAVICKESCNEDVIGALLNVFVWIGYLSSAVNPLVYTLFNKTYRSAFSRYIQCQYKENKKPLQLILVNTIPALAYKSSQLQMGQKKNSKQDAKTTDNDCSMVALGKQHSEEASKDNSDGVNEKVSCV

[5] = biological target: 5-hydroxytryptamine receptor 6 (Homo sapiens, UniProt P50406)
5-hydroxytryptamine receptor 6, sequence (P50406 whole entry): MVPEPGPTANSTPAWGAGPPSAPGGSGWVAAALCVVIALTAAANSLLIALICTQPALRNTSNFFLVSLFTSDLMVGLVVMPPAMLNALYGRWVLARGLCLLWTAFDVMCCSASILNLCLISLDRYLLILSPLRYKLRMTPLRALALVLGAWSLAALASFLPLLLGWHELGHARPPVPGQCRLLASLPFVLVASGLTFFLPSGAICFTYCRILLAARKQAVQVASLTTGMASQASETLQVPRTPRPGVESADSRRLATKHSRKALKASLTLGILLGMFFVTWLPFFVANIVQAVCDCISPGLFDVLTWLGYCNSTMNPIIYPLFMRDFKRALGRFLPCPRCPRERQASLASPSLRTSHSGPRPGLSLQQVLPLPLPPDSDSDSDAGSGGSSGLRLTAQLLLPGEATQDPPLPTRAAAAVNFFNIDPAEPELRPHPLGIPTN

[6] = biological target: 5-hydroxytryptamine receptor 7 (Homo sapiens, UniProt P34969)
5-hydroxytryptamine receptor 7, sequence (P34969 whole entry): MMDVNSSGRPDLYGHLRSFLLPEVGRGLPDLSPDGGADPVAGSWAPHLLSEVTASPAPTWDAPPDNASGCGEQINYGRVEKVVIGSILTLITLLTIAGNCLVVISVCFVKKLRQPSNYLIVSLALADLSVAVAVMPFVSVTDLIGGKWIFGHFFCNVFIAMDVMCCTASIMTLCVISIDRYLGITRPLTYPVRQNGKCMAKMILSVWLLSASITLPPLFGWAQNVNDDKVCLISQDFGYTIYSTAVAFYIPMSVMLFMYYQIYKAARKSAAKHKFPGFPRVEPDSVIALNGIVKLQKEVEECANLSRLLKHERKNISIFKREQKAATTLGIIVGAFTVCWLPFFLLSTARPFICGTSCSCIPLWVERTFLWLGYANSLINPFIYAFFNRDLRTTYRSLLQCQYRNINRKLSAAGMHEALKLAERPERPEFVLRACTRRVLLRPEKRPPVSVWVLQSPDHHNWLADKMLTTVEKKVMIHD

[7] = biological target: 5-hydroxytryptamine receptor 2B (Homo sapiens, UniProt P41595)
5-hydroxytryptamine receptor 2B, sequence (P41595 whole entry): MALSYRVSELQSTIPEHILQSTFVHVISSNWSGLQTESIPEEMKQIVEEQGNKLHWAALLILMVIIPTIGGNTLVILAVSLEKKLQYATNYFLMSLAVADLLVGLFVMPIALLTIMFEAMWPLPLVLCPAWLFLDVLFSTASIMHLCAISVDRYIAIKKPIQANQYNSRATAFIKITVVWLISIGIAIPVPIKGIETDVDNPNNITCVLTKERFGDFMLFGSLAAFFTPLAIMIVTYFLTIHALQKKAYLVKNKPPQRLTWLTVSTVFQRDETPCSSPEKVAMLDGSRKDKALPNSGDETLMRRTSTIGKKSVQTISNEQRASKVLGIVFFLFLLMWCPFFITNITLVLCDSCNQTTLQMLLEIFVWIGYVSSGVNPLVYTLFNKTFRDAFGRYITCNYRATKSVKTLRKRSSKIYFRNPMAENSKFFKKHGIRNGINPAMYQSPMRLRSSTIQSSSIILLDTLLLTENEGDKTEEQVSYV

[8] = biological target: 5-hydroxytryptamine receptor 4 (Homo sapiens, UniProt Q13639)
5-hydroxytryptamine receptor 4, sequence (Q13639 whole entry): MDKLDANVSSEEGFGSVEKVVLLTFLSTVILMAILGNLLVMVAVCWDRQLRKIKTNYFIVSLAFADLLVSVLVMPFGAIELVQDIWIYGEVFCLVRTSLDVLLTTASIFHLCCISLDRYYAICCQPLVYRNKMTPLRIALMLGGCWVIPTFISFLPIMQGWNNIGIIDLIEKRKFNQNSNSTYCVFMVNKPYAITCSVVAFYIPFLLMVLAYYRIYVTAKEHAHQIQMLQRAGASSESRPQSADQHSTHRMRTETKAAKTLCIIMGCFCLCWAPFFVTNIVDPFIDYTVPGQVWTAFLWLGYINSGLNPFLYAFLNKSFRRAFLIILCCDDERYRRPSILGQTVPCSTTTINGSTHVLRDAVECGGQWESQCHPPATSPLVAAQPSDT

[9] = biological target: T2, 5-hydroxytryptamine receptor 3A (Homo sapiens, UniProt P46098)
T2 sequence (P46098 whole entry): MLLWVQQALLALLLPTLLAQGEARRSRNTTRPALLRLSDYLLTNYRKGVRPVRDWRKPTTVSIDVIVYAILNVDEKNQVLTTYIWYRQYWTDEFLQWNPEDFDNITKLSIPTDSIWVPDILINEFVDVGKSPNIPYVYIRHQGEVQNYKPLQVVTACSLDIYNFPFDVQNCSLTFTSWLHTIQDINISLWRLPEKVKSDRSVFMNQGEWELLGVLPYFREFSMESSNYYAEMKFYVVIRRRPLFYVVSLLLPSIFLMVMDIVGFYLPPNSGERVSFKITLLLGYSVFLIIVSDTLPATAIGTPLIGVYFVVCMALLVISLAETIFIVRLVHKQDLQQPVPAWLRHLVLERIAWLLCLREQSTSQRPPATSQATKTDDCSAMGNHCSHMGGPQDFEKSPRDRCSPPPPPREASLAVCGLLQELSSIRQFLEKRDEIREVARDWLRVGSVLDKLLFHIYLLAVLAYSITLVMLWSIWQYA

[10] = biological target: 5-hydroxytryptamine receptor 1B (Homo sapiens, UniProt P28222)
5-hydroxytryptamine receptor 1B, sequence (P28222 whole entry): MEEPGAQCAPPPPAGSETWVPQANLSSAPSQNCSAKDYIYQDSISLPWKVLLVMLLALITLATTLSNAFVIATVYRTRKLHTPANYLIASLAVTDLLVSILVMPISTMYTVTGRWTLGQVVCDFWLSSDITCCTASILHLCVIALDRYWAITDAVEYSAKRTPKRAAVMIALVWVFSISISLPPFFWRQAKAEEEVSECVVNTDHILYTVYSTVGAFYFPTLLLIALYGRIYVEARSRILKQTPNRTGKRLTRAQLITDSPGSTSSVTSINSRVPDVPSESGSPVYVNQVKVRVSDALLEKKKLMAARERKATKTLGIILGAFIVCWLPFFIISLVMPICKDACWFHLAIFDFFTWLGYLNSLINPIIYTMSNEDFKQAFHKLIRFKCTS

[11] = biological target: T3, 5-hydroxytryptamine receptor 2C (Homo sapiens, UniProt P28335)
T3 sequence (P28335 whole entry): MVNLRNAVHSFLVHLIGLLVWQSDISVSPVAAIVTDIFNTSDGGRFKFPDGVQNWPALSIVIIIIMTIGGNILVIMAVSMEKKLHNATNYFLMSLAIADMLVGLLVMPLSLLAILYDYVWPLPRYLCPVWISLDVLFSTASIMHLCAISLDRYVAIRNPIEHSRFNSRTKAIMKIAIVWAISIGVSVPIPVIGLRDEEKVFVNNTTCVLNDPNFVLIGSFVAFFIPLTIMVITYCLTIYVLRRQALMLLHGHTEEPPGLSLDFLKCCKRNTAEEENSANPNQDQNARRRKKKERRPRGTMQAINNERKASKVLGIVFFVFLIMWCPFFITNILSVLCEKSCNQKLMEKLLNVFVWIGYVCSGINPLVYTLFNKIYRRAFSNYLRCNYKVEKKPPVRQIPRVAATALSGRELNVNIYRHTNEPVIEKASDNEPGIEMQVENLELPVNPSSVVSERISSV

5-hydroxytryptamine receptor 5A, sequence (P47898 whole entry): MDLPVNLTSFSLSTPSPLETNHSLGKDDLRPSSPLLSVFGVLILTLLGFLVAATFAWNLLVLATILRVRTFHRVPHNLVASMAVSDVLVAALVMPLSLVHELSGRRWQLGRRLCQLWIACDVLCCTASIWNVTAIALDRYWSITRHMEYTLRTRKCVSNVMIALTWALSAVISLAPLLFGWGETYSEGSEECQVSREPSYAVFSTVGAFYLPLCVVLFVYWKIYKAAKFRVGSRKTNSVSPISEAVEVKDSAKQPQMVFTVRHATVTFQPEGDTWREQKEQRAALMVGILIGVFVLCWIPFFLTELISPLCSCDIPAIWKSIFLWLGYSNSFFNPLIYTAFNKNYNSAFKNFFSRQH

Ki [1]: > 10000 nM | Ki [2]: 1020 nM | Ki [3]: 7990 nM | Ki [4]: 1320 nM | Ki [5]: 2580 nM | Ki [6]: 3260 nM | Ki [7]: 1560 nM | Ki [8]: 0.6 nM | Ki [9]: > 10000 nM | Ki [10]: 5500 nM | Ki [11]: 4780 nM
SMILES: Nc1c(Cl)cc(-c2nn(C3CCN(CCc4ccccc4)CC3)c(=O)o2)c2c1OCCO2 [SL65.0155]
